Assays:
[1] = target: T1, thioredoxin reductase (TrxR) (Rattus norvegicus, UniProt O89049); test: Thioredoxin reductase inhibition, colorimetric DTNB assay; type: biochemical; conditions: 0.1 nM–2 µM
T1 construct: purchased Sigma-Aldrich
T1 sequence (O89049 1-499): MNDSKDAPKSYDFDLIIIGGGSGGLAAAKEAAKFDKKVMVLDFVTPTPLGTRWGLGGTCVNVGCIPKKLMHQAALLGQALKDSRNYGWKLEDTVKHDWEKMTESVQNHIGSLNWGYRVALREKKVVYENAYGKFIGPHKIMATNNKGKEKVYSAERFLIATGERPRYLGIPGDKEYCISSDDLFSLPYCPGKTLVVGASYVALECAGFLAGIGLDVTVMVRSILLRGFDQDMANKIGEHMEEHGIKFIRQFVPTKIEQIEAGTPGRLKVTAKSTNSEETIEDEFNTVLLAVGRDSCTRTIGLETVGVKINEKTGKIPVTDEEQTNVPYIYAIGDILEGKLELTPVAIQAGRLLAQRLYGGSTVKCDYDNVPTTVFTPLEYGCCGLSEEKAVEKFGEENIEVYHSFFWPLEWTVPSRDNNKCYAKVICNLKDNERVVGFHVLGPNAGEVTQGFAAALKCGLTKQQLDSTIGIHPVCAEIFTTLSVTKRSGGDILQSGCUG
Experimental: The effect of the selected gold complexes on the activity of TrxR was evaluated by a colorimetric DTNB assay as previously described. […] The substituent on the nitrogen atom of the thiazoline ring ([P][AuSEt(=S)] vs. [P][AuSBu(=S)]) and the nature of the exocyclic atom ([P][AuSEt(=S)] vs. [P][AuSEt(=Se)]) seemed to influence the inhibitory effect on the enzyme. The exocyclic selenium atoms of [P][AuSEt(=Se)] seemed to disfavor the intermolecular interaction with the enzyme in relation with the peripheral thione group of [P][AuSEt(=S)].
The […] (TrxR) inhibition assays were performed using a commercial kit from Sigma-Aldrich, introducing minor modifications for a 96-well plate format. The assay is based on the reduction of DTNB (5,5′ dithiobis(2-nitrobenzoic acid)) into TNB (5-thio-2-nitrobenzoic acid) with the concomitant oxidation of NADPH, in a reaction catalyzed by TrxR [92]. The complexes were dissolved in DMSO to prepare serial concentrations in the range of 0.1 nM–2 µM. The reaction mixture (200 µL total volume) contained 11 μL assay buffer (phosphate buffer, pH 7.0 and 50 mM EDTA), 180 µL working buffer (phosphate buffer and 0.25 mM NADPH), 1 μL complexes’ solutions, 2 μL enzyme solution and 6 µL DTNB (0.1 M in DMSO). […] The formation of TNB was monitored at 412 nm with a plate spectrophotometer (Power Wave Xs, Bio-Tek).

Cyclic voltammetry = type: physicochemical; conditions: CH2Cl2, NBu4PF6
Description: The redox properties of the various gold(III) bis(dithiolene) and bis(diselenolene) complexes were investigated by cyclic voltammetry using the same conditions, dichloromethane solutions and NBu4PF6 as supporting electrolyte. Under these conditions, the nature of the counter-ion, Ph4P^+ or Et4N^+, had no influence on the redox properties observed, due to ion exchange with the Bu4N^+ of the supporting electrolyte. Thus, only the result of one monoanion is included in Table 1, even if the two salts were analyzed. For all the investigated monoanionic bis(dithiolene) complexes, three redox processes are observed on the cyclic voltammograms. On the anodic scan, the two oxidation waves correspond to the oxidation of the monoanionic species into the neutral and to the monocationic complex. Most of these complexes had the tendency to deposit on the electrode once oxidized and frequently a strong desorption peak was observed on the reversible scan. This phenomenon occurs essentially for the complex with an exocyclic sulfur atom, [AuSR(=S)]^−1. On the cathodic scan, an irreversible process associated with the reduction in the monoanion into the dianion occurs (Scheme 2). […] The presence of oxygen instead of sulfur makes the oxidation of the monoanionic into the neutral species easier. On the other hand, the presence of electron-withdrawing substituents such as =C(CN)2 induces an anodic shift of the oxidation potentials by 300 mV, compared with the =O derivative, leading to a monoanion which is more difficult to oxidize than the other complexes of the series. […] Indeed, the potential difference between the second and the first oxidation potentials amounts to 470 mV and 410 mV for the =O and the =C(CN)2 derivatives, respectively, while for the =S analogues this value is smaller (170 mV). […] For comparison, we also investigated the redox behavior of Auranofin using the same experimental conditions in CH2Cl2 in the presence of NBu4PF6 as a supporting electrolyte. Using these conditions, upon anodic scan only one irreversible oxidation process is observed at 1.42 V vs. SCE. Therefore, all these monoanionic gold bis(dithiolene) and bis(diselenolene) complexes are easier to oxidize than Auranofin.
All reagents and materials from commercial sources were used without further purification. NMR spectra were recorded at room temperature using CDCl3 unless otherwise stated (Figures S7–S15). Chemical shifts are reported in ppm and ^1H NMR spectra were referenced to residual CHCl3 (7.26 ppm) and ^13C NMR spectra were referenced to CHCl3 (77.2 ppm). Mass spectra were recorded with an Agilent 6510 instrument for organics compounds and with a Thermo-Fisher Q-Exactive instrument for complexes by the Center Régional de Mesures Physiques de l’Ouest, Rennes. Cyclic voltammograms (CV)s were carried out on a 10^−3 M solution of complex in CH2Cl2-[NBu4] [PF6] 0.1 M. CVs were recorded on a Biologic SP-50 instruments at 0.1 Vs^−1 on a platinum disk electrode. Potentials were measured versus KCl Saturated Calomel Electrode (SCE). Column chromatography was performed using silica gel Merck 60 (70–260 mesh). The solvents were purified and dried by standard methods. The proligand 2-SEt(=C(CN2)), [72] and complexes [N][AuSMe(=S)], [73] [N][AuSEt(=S)], [74] [P][AuSEt(=O)], [75] [N][AuSeEt(=S)] [75] and [P][AuSPr(=S)] [76] were synthesized according to the previously reported procedure.

[2] = system: A2780 ovarian cancer cells; parameters: method as in PMID 32391537; conditions: 48 h incubation, MTT; starred values; read-out: IC50 A2780, 48 h; cited from earlier work

CC(=O)OC[C@H]1O[C@@H]([S-])[C@H](OC(C)=O)[C@@H](OC(C)=O)[C@@H]1OC(C)=O.CCP(CC)CC.[Au+] [Auranofin, reference compound]
IC50 [1]: 26 ± 10 nM
irreversible oxidation process (anodic scan) (Cyclic voltammetry): 1.42 V vs. SCE
IC50 [2]: 430 ± 270 nM

From publication PMC9266914, “Broad Spectrum Functional Activity of Structurally Related Monoanionic Au(III) Bis(Dithiolene) Complexes” (International Journal of Molecular Sciences, 2022)
